Results on one compound are retold here after paper PMC12612047 (Nature Communications, 2025).

Molecules are shown by their SMILES.

This test concerns CLMB-FLAG S-acylation in HEK293 Flp-In TReX cells. Nature of the test: Metabolic pulse-chase labeling assay of dynamic CLMB S-acylation. The format is cell-based. The conditions noted are these: 30-min chase.

As to `CCCCCCCCCC[C@@H]1C(=O)O[C@H]1CCc1ccc(OC)c(OC)c1` [PalmB, palmostatin B], the “increase of palmitate incorporation into CLMB (17-ODYA to L-AHA ratio), PalmB vs DMSO” value is ~ 3 fold.
